Data published in PMC4767442 (Oncotarget, 2015).

Key:
[1] = parameters: method as in PMID 12203104; conditions: humans, single i.v. bolus; cited from earlier work
[2] = Pharmacokinetics and metabolism of Bp4eT in rats (literature); assay type: in vivo
[3] = cited from earlier work
[4] = test system: HL-60 human promyelocytic leukemia cell line; test: MTT proliferation/viability assay, HL-60; assay type: cell-based; conditions: 72 h/37°C, mean ± S.D.
Procedure: (§1) The MCF-7 human breast adenocarcinoma cell line was purchased from the European Collection of Cell Cultures (U.K.). The HL-60 human promyelocytic leukemia cell line, HCT116 human colorectal carcinoma cell line, H9c2 rat heart-derived myoblast cell line and 3T3 mouse embryo fibroblast line, were obtained from the American Type Culture Collection (VA, U.S.A.). Cells were cultured in Dulbecco's modified Eagle's medium (DMEM, Lonza, Switzerland) with or without (for MCF-7 cells only) phenol red, supplemented with 10% heat-inactivated fetal bovine serum (FBS; Lonza, Switzerland), 1% penicillin/streptomycin solution (Lonza, Switzerland) and 10 mM HEPES buffer (pH 7.0-7.6; Sigma-Aldrich, Germany). The HL-60 cell line was maintained in RPMI medium (Sigma-Aldrich, Germany) supplemented with 10% heat-inactivated FBS and 1% penicillin/streptomycin solution. All cell lines were cultured in 75 cm^2 tissue culture flasks (Switzerland) at 37°C in a humidified atmosphere of 5% CO2. Sub-confluent cells or, in the case of HL-60 cells, a cell suspension, were sub-cultured every 3-4 days.
(§2) Cells were seeded in 96-well plates for 24 h/37°C at a density of 5,000 (MCF-7), 10,000 (HL-60), 2,000 (HCT116) and 10,000 (3T3 and H9c2) cells/well. For 3T3 and H9c2 cells, the medium was changed to serum- and pyruvate-free DMEM 24 h prior to the experiments. Anti-proliferative and cytotoxicity effects of the compounds were studied at different concentrations after incubations for 72 h/37°C. Viabilities of cells were determined using MTT assays (Sigma-Aldrich, Germany) according to the manufacturer's instructions on a Tecan Infinite 200M plate reader (Tecan, Austria). The proliferation/viability of treated groups was expressed as a percentage of the untreated controls (100%).

[5] = test system: MCF-7 human breast adenocarcinoma cell line; test: MTT proliferation/viability assay, MCF-7; assay type: cell-based; conditions: MCF7, 72 h/37°C, mean ± S.D.
Procedure: as §1, §2

[6] = test system: HCT116 human colorectal carcinoma cell line; test: MTT proliferation/viability assay, HCT116; assay type: cell-based; conditions: HCT-116, 72 h/37°C, mean ± S.D.
Procedure: as §1, §2

[7] = test system: H9c2 rat heart-derived myoblast cell line; test: MTT proliferation/viability assay, H9c2; assay type: cell-based; conditions: 72 h/37°C, mean ± S.D., serum- and pyruvate-free DMEM
Procedure: as §1, §2

[8] = test system: 3T3 mouse embryo fibroblast line; test: MTT proliferation/viability assay, 3T3; assay type: cell-based; conditions: 72 h/37°C, mean ± S.D., serum- and pyruvate-free DMEM
Procedure: as §1, §2

[9] = test system: cancer cell lines (HL-60, MCF-7 and HCT116); test: MTT assay, cancer cell lines as a group; assay type: cell-based; conditions: Homo sapiens, HL-60, MCF-7, HCT116, 72 h/37°C, read-out: IC50 against all cancer cell lines
Procedure: as §1, §2

[10] = test system: non-cancer cell lines (H9c2 and 3T3); test: MTT assay, non-cancer cell lines as a group; assay type: cell-based; conditions: Rattus norvegicus, 72 h/37°C, read-out: IC50 towards non-cancer cells
Procedure: as §1, with “All cell lines were cultured in 75 cm^2 tissue culture flasks (Switzerland) at 37°C in a humidified atmosphere of 5% CO2. Sub-confluent cells or, in the case of HL-60 cells, a cell suspension, were sub-cultured every 3-4 days.” left out
Cells were seeded in 96-well plates for 24 h/37°C at a density of 5,000 (MCF-7), 10,000 (HL-60), 2,000 (HCT116) and 10,000 (3T3 and H9c2) cells/well. […] Viabilities of cells were determined using MTT assays (Sigma-Aldrich, Germany) according to the manufacturer's instructions on a Tecan Infinite 200M plate reader (Tecan, Austria). The proliferation/viability of treated groups was expressed as a percentage of the untreated controls (100%).

[11] = test system: cellular labile iron pools; test: Fluorimetric calcein-AM assay of intracellular iron chelation; assay type: cell-based; conditions: 10 μmol·L^−1, parent Dp44mT or DpC
Procedure: (§3) Iron chelation efficiency of the compounds at a concentration of 10 μmol·L^−1 was determined via 3 methods: (1) the calcein assay; (2) the ability of the ligands to induce ^59Fe mobilization from cells prelabeled with ^59Fe-transferrin; and (3) the efficacy of these agents to inhibit the uptake of ^59Fe from ^59Fe-transferrin [22, 38–40].
(§4) The fluorimetric calcein-AM assay was performed by established methods, as described previously. The Fe chelation efficiency of the metabolites in cells was expressed as a percentage of that of the parent chelator, Dp44mT or DpC (100%). For studies assessing the ability of these agents to induce ^59Fe mobilization and inhibit ^59Fe uptake from ^59Fe-transferrin by cells, human transferrin (Sigma-Aldrich, Germany) was labeled with ^59Fe (PerkinElmer, MA, USA) to generate ^59Fe-transferrin at a final specific activity of 500 pCi/pmol Fe, as previously described. The unbound ^59Fe was removed by exhaustive vacuum dialysis against a large excess of 0.15 M NaCl buffered to pH 7.4 with 1.4% NaHCO3 by standard methods.

MCF-7 cells [12] = test: 59Fe mobilization from cells prelabeled with 59Fe-transferrin; assay type: cell-based, human; conditions: MCF-7 prelabeled with 59Fe-transferrin, compounds 25 μmol·L^−1, 3 h/37°C
Procedure: as §3, §4
(§5) To examine the ability of the studied substances to mobilize ^59Fe from MCF-7 cells or inhibit ^59Fe uptake from ^59Fe-transferrin, established techniques were utilized. For ^59Fe mobilization studies, cells were preincubated with ^59Fe-transferrin (0.75 μmol·L^−1) for 3 h/37°C, washed 4 times at 4°C on ice, and then reincubated with control medium or control medium containing the compounds (25 μmol·L^−1) for 3 h/37°C. The release of ^59Fe from the cells into the overlying medium was then examined by collecting both the cells and overlying medium and assessing ^59Fe levels using a γ-counter. For studies examining the ability of the agents to inhibit ^59Fe uptake from ^59Fe-transferrin, cells were incubated for 3 h/37°C with ^59Fe-transferrin (0.75 μmol·L^−1) in the presence or absence of the agents (25 μmol·L^−1), and then washed 4 times at 4°C on ice. The internalization of ^59Fe by cells was then assessed by incubation for 30 min/4°C with the general protease, Pronase (1 mg/mL), utilizing standard techniques. The amount of internalized ^59Fe in the presence of the agents was expressed as a percentage of ^59Fe internalized by control cells incubated in the presence of control media alone.

MCF-7 cells [13] = test: Inhibition of internalized 59Fe uptake from 59Fe-transferrin; assay type: cell-based, human; conditions: MCF-7, compounds 25 μmol·L^−1, 3 h/37°C
Procedure: as §3, §4, §5

[14] = Long-term stability in plasma samples at -80°C; assay type: in vitro ADME, rat; conditions: for Long-term stability: plasma, -80°C, 7 days
Procedure: (§6) The UHPLC-MS/MS methods for quantitative assays were validated with respect to selectivity, linearity, precision, accuracy, stability, recovery, matrix effects and dilution integrity (see […]
Linearity was examined over the concentration ranges described in Supplementary Table 1 using a weighted (1/x 2) linear regression in GraphPad Prism 6 (v. 6.04, GraphPad Software […]
(§7) Stability was assessed at low, medium and high concentration levels. Long -term stability was assessed for plasma samples at -80°C over a period of 7 days (three aliquots per level; Supplementary Table 3). […]

[15] = Post-preparative stability in the autosampler at 10°C; assay type: physicochemical; conditions: for Post-preparative stability: autosampler 10°C, 24 h
Procedure: as §6
Supplementary Table 1-3). […]
as §7

[16] = high concentration level (2.105-3.115 µmol·L-1)
[17] = low concentration level (0.035-0.156 µmol·L-1)
[18] = medium concentration level (0.702-1.558 µmol·L-1)

Question: With `NC(=S)NN=Cc1ncccc1N` [Triapine®, 3-aminopyridine-2-carboxaldehyde thiosemicarbazone] as the compound, how does the half-life of elimination [1] read?
Answer: approximately 1 h

Question: With `CCNC(=S)NN=C(c1ccccc1)c1ccccn1` [Bp4eT, 2-benzoylpyridine 4-ethyl-3-thiosemicarbazone] as the compound, how does the “dose-corrected Cmax, fold higher than Dp44mT and DpC of the present study” value [2] read?
Answer: ~2 fold

Question: What about the “AUC of the amidrazone metabolite relative to the parent drug” value ([3]; rat, in vivo) of the same compound?
Answer: ≈ 20%

Question: What about the elimination half-life ([3]; rats) of the same compound?
Answer: 1.4 h

Question: What does the source list for `CN(C=NN=C(c1ccccn1)c1ccccn1)C1CCCCC1` [DpC-A, N-cyclohexyl-N′-(di(pyridin-2-yl)methylene)-N-methylformohydrazonamide]?
Answer: IC50 [4]: 32.3 ± 3.85 µM; IC50 [5]: 19.5 ± 6.27 µM; IC50 [6]: 34.1 ± 6.35 µM; IC50 [7]: 257 ± 73.6 µM; IC50 [8]: 640 ± 65.9 µM; IC50 [9]: ≥ 19 µM; IC50 [10]: ≥ 257 µM; intracellular Fe chelation efficacy relative to parent chelator (100%) [11]: 2.5%; 59Fe mobilization (in words) (MCF-7 cells [12]): comparable (p > 0.05) to the control medium; inhibition of 59Fe uptake from 59Fe-transferrin (in words) (MCF-7 cells [13]): loss of Fe chelation efficacy; Long-term stability [14, 16]: 104.23%; Long-term stability [14, 17]: 87.83%; Long-term stability [14, 18]: 105.54%; decomposition on storage (in words) ([14]; up to 7 days stored at −80°C): No significant decomposition; decomposition on storage (in words) ([15]; 24 h storage in the autosampler at 10°C): No significant decomposition; Post-preparative stability [15, 16]: 99.55%; Post-preparative stability [15, 17]: 101.11%; Post-preparative stability [15, 18]: 93.89%
